Experimental data published in US11944701B2, “Protection of materials by sphingosine based compounds” (STICHTING VU, priority 2012, dated 2024).
Read-outs that look alike come from different tables or passages of the source.

How the values were obtained:
[1] = Erosion test: weight loss of HAP disks after exposure to citric acid; settings: for protection of HAP: 100 μg/ml in Tris-Tween, 3 hrs
Protocol: Dental enamel consists largely of hydroxyapatite crystals (Ca10(PO4)6(OH)2. Sintered at high temperatures, hydroxyapatite discs can be produced with physical characteristics (e.g. hardness and density) resembling those of enamel (Anderson et al, 2004), which can be used to determine erosive properties of solutions (Jensdottir et al, 2005) by measuring weight loss from hydroxyapatite after immersion in an erosive (acidic) solution.
Hydroxyapatite discs, sintered at 1250° C. and with a relative density of 98% were obtained from Swerea, Stockholm, Sweden. The lateral and bottom surfaces of the discs were covered with nail polish so that one side remained uncoated. Next, discs were cleaned by sanding with sand paper (3M734 P600) rinsed with demineralised water, dried at 37° C. overnight and weighed to determine the initial mass. Hydroxyapatite discs were placed in the wells of 12 well cell culture plates (Greiner bio-one, Frickenhausen, Germany), to which was added 1.5 ml of phytosphingosine (PHS in various concentrations dissolved in saliva buffer (2 mM potassium phosphate, 50 mM KCl, 1 mM CaCl2, 0.1 mM MgCl2, pH 6.8) under gently shaking for 3 hours at 37° C. After three times rinsing with 4 ml saliva buffer to remove unbound PHS, discs were placed in new wells with 4 ml of 0.1 M citric acid (pH=3.0). After 30 minutes citric acid was pipetted off and discs were rinsed 3 times with 4 ml demineralized water, dried overnight at 37° C. and weighted. The difference in weight before and after the erosive treatment was taken as a measure for erosion. The experiments were conducted in triplicate and were repeated at least two times. Formation of saliva pellicle on HAP discs was achieved as follows: saliva was collected without conscious stimulation, as described previously (Navazesh, 1993). Saliva was cleared from cellular debris by centrifugation at 10,000 g for 10 minutes. The supernatant (HWS) was collected and used for coating HAP disks with a salivary pellicle. For this purpose, HAP disks were incubated with 4 ml HWS at 37° C. After 3 hrs, disks were rinsed 3 times with distilled water to remove unbound protein. Subsequently, the protective effect of PHS on saliva-coated HAP was tested as described above for bare HAP.
Protection of HAP against erosion was determined essentially as described by Jensdottir et al, (2005), by measuring weight loss from HAP disks before and after immersion in an erosive (acidic) solution using a Sartorius GD503 analytical precision scale. For the erosion experiments, the lateral and bottom surfaces of the disks were covered with nail polish leaving the circular upper surface uncoated. Next, disks were cleaned by sanding with fine sand paper (3M734 P600), rinsed with demineralised water, dried at 37° C. overnight and weighed to determine the initial mass. Stock solutions of lipids were prepared in ethanol to a concentration of 5 mg/ml. These stock solutions were diluted further to the desired concentration in the working buffer. Working solutions of PHS were prepared in saliva buffer (2 mM potassium phosphate, 50 mM KCl, 1 mM CaCl2, 0.1 mM MgCl2, pH 6.8) or in 20 mM Tris (pH 6.8) supplemented with 0.1% Tween 20 (Tris-Tween). HAP disks were placed in the wells of 12 well cell culture plates (Greiner bio-one, Frickenhausen, Germany), to which 1.5 ml of the lipid solutions was added and incubated under gentle shaking for 3 hours at 37° C. After three times rinsing with 4 ml of the incubation buffer to remove unbound lipid, disks were incubated with 4 ml of 0.1 M citric acid (pH=3.0). […] The difference in weight before and after the erosive treatment was taken as a measure for erosion. All incubations were conducted in triplicate and each experiment was repeated at least two times.

Streptococcus sanguinis = assay: Antifouling activity of sphingolipids coated on HA discs; assay type: cell-based; settings: HA discs coated with 100 μg/ml lipid; 2 hr with bacteria
Protocol: (§1) Six different sphingolipids including PHS, PHS phosphate, Sphingosine, Sphinganine, Stearoyl PHS and Sphingomyelin were tested for their antifouling properties against two primary colonizers i.e.—Streptococcus sanguinis and Streptococcus gordonii and a late colonizer, Streptococcus mutans.
(§2) HA discs were incubated 0/N with 100 μg/ml lipid at 37° C. Subsequently, the discs were washed to remove unbound lipid. Then the lipid-coated HA discs were incubated for 2 hr with 1.5 ml of ˜10^7 cells/ml. After washing, the adherent bacterial cells were desorbed by sonication and transferred to agar plates. After 48 hr CFUs were counted.

[2] = PHS adsorption to HAP (OPA fluorimetry)
Protocol: PHS was dissolved in concentrations ranging from 0 to 500 μg/ml in 20 mM Tris buffer supplemented with 0.1% Tween 20 (pH 6.8) (Tris-Tween). Tween 20 was added to keep PHS in solution. Disks were incubated with the PHS solutions for 18 h, and then rinsed with demin water (3 times) to remove unbound PHS. HAP bound PHS was extracted by incubation with 1.5 ml methanol for 90 minutes. Since nail polish dissolved in methanol, in the binding experiments HAP disks were used without nail polish. It was verified that no PHS was adsorbed to the plastic, by conducting control incubations without disks. After evaporation, the residue was dissolved in 250 μl of methanol. To 100 of this solution 25 μl ortho-phtaldialdehyde reagent (OPA, Sigma-Aldrich) to enable fluorimetric quantification of bound PHS. Fluorescence was measured on a Fluostar microplate reader at excitation/emission wavelengths of 380 nm/450 nm. Absolute quantities were determined by reference to a standard curve of PHS. All incubations were conducted in triplicate and the experiment was repeated two times.

Solubility of PHS = assay type: physicochemical
[3] = in saliva buffer; cited from earlier work
Streptococcus mutans = assay: Antifouling activity of sphingolipids coated on HA discs; assay type: cell-based; settings: HA discs coated with 100 μg/ml lipid; 2 hr with bacteria
Protocol: as §1, §2

Streptococcus gordonii = assay: as above; assay type: cell-based; settings: HA discs coated with 100 μg/ml lipid; 2 hr with bacteria
Protocol: as §1, §2

Q: For sphingomyelin [reference compound], which “protection of HAP” value ([1]; 0.1 M citric acid 30 minutes) is on record?
A: The value was “did not protect HAP”.

Q: And the “reduction in bacterial adherence” value (Streptococcus sanguinis)?
A: The value was 1 log value.

Q: With `CCCCCCCCCCCCCC[C@@H](O)[C@@H](O)[C@@H](N)CO` [PHS, phytosphingosine] as the molecule, how does the “effect on the pH of citric acid” value [1] read?
A: The value was “no effect”.

Q: What about the “protection when present in the erosive fluid” value ([1]; 0.1 M citric acid in the presence of 100 ug/ml PHS, 30 minutes, untreated HAP disks) of the same molecule?
A: The value was “protects against erosion even with untreated HAP disks”.

Q: And the “duration of the protective effect” value ([1]; 1 hour exposure to citric acid, 50 μg/ml PHS (FIG. 3))?
A: Its value is “still protected”.

Q: And the “protection of disks covered with a salivary pellicle (CHWS) versus controls” value ([1]; 20 hrs CHWS, then 100 μg/ml PHS in TrisT 3 hrs, 0.1 M citric acid 30 minutes)?
A: The value was “protected to the same extent”.

Q: What about the “protection against dissolution by citric acid relative to the control disks” value ([1]; HAP discs pretreated, then 0.1 M citric acid (pH=3) for 30 minutes) of the same molecule?
A: The value was “more than 80%”.

Q: And the “PHS concentration at which virtually maximal protection was achieved” value ([1]; HAP disks incubated 3 hrs with PHS, citric acid 30 minutes)?
A: The value was over 20 µg/mL.

Q: What about the “protection of saliva-coated HAP versus uncoated HAP” value ([1]; HAP disks preincubated with human saliva (salivary pellicle)) of the same molecule?
A: Its value is “to the same extent”.

Q: And the “protection at 500 and 50 μg/ml” value ([1]; PHS 500 and 50 μg/ml)?
A: Its value is “comparable protection”.

Q: And the “protection at 5 ug/ml” value ([1]; PHS concentration lowered to 5 ug/ml)?
A: The value was “steep decrease in protection”.

Q: What about the “protection with PHS dissolved in Tris-Tween compared with saliva buffer” value ([1]; PHS dissolved in Tris-Tween) of the same molecule?
A: Its value is “essentially the same protection”.

Q: And the “less weight loss compared to the untreated control disks” value ([1]; PHS in saliva buffer, subsequent erosive challenge 0.1 M citric acid (pH=3) 30 minutes)?
A: Its value is 70-80%.

Q: And the protection by pre-treatment ([1]; pretreated 100 ug/ml 3 hours, 0.1 M citric acid (pH=3.0) 30 minutes)?
A: Its protection by pre-treatment is “protects against the erosive effects of citric acid”.

Q: What about the “effect of solvent used for stock solution on protection” value ([1]; stock 5 mg/ml in DMSO or ethanol, with or without sonication, 3 hr incubation) of the same molecule?
A: Its value is “No difference”.

Q: And the “binding level at which protection is maximal” value ([1]; submaximal binding, 0.1 M citric acid (pH 3.0) 30 minutes)?
A: The value was “approximately 6 μg per disk”.

Q: What about the “PHS adsorbed onto the surface of the disk” value ([2]; at maximal adsorption (60 μg/ml and higher), Tris-Tween) of the same molecule?
A: Its value is “approximately 12 μg”.

Q: What about the “time to equilibrium of the initial fast phase of binding” value ([2]; biphasic time course, gradual increase over the next 15 hrs) of the same molecule?
A: The value was at most 1 h.

Q: What about the “PHS concentration at which maximal adsorption occurred” value ([2]; in Tris-Tween) of the same molecule?
A: Its value is at least 60 µg/mL.

Q: And the “adsorption to saliva-incubated HAP disks compared to control” value ([2]; overnight incubation with saliva, then PHS, control saliva buffer)?
A: Its value is “even higher amounts of PHS adsorbed”.

Q: And the “share of the maximal adsorption level reached” value ([2]; within 5 minutes)?
A: The value was over 65%.

Q: What about the amount adsorbed ([2]; within one minute, fixed PHS concentration) of the same molecule?
A: The amount adsorbed was “substantial amount”.

Q: And the solubility (Solubility of PHS; in Tris-Tween, concentration before and after centrifugation 10 minutes 10,000 g)?
A: Its solubility is “completely soluble”.

Q: And the solubility (Solubility of PHS; in water)?
A: The solubility was “moderately soluble”.

Q: What about the solubility [3] of the same molecule?
A: Its solubility is “poorly soluble”.

Q: For `CCCCCCCCCCCCCCC[C@@H](O)[C@@H](N)CO` [Sphinganine], which “protection of HAP” value ([1]; 0.1 M citric acid 30 minutes) is on record?
A: Its value is “protection that was comparable to that by PHS”.

Q: What about the “effect of phosphate in the buffer on efficacy” value ([1]; FIG. 8) of the same molecule?
A: The value was “more effective when provided in a buffer not containing, or containing a minimal amount of, phosphate”.

Q: What about the “protection against citric acid” value ([1]; used in a Tris buffer (FIG. 8)) of the same molecule?
A: The value was “protected against citric acid”.

Q: What about the “protection against citric acid” value ([1]; used in a buffer containing phosphate ions) of the same molecule?
A: Its value is “not when used in a buffer containing phosphate ions”.

Q: And the “reduction of adherent bacteria” value (Streptococcus mutans)?
A: Its value is 3 log.

Q: And the “reduction in bacterial adherence” value (Streptococcus sanguinis)?
A: The value was 2 log value.

Q: And the “reduction in bacterial adherence” value (Streptococcus gordonii)?
A: Its value is 1.5 log values.

Q: For `CCCCCCCCCCCCCCC(O)[C@@H](O)[C@@H](N)COP(=O)(O)O` (stereo partly drawn) [PHS phosphate, 4-hydroxysphinganine-1-phosphate], which “protection of HAP” value ([1]; 0.1 M citric acid 30 minutes) is on record?
A: The value was “protection that was comparable to that by PHS”.

Q: And the “antifouling activity (reduction of adherent bacteria)” value (Streptococcus mutans)?
A: The value was about 2 log CFU/ml.

Q: What about the “reduction in bacterial adherence” value (Streptococcus gordonii) of the same molecule?
A: Its value is 1.5 log values.

Q: For “4-hydroxysphinganine-1-phosphate [PHS phosphate]”, which “protection against subsequent erosive attack by citric acid” value ([1]; 200 μg/ml in saliva buffer) is on record?
A: Its value is “did not afford protection”.

Q: With `CCCCCCCCCCCCCCCCCC(=O)N[C@@H](CO)[C@H](O)C(O)CCCCCCCCCCCCCC` (stereo partly drawn) [Stearoyl PHS, N-stearoyl 4-4-hydroxysphinganine] as the molecule, how does the “antifouling activity (reduction of adherent bacteria)” value (Streptococcus mutans) read?
A: Its value is about 2 log CFU/ml.

Q: With “Di-myroistyl phosphatidylcholine [reference compound]” as the molecule, how does the “protection of HAP” value ([1]; 0.1 M citric acid 30 minutes) read?
A: Its value is “did not protect HAP”.

Q: With `CCCCCCCCCCCCC/C=C/[C@@H](O)[C@@H](N)CO` [sphingosine] as the molecule, how does the “protection of HAP” value ([1]; 0.1 M citric acid 30 minutes) read?
A: The value was “protection that was comparable to that by PHS”.
